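GI50 = concentration required for 50% inhibition of growth. The concentration for full growth arrest is given as TGI.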
Legend:
Assay in all cases: inhibition of tumour cell growth, NCI panel, 384-well format
786-0 renal = system: 786-0 renal
A498 renal = system: A498 renal
A549 NSCLC = system: A549 NSCLC
ACHN renal = system: ACHN renal
BT-549 breast = system: BT-549 breast
CAKI-1 renal = system: CAKI-1 renal
CCRF-CEM leukemia = system: CCRF-CEM leukemia
COLO 205 colon = system: COLO 205 colon
DU-145 prostate = system: DU-145 prostate
EKVX NSCLC = system: EKVX NSCLC
HCC-2998 colon = system: HCC-2998 colon
HCT-116 colon = system: HCT-116 colon
HCT-15 colon = system: HCT-15 colon
HL-60(TB) leukemia = system: HL-60(TB) leukemia
HOP-62 NSCLC = system: HOP-62 NSCLC
HOP-92 NSCLC = system: HOP-92 NSCLC
HS 578T breast = system: HS 578T breast
HT29 colon = system: HT29 colon
IGROV1 ovarian = system: IGROV1 ovarian
K-562 leukemia = system: K-562 leukemia
KM12 colon = system: KM12 colon
LOX IMVI melanoma = system: LOX IMVI melanoma
M14 melanoma = system: M14 melanoma
MALME-3M melanoma = system: MALME-3M melanoma
MCF7 breast = system: MCF7 breast
MDA-MB-231 breast = system: MDA-MB-231 breast
MDA-MB-435 melanoma = system: MDA-MB-435 melanoma
MDA-MB-468 breast = system: MDA-MB-468 breast
MOLT-4 leukemia = system: MOLT-4 leukemia
NCI-H226 lung = system: NCI-H226 lung
NCI-H23 lung = system: NCI-H23 lung
NCI-H322M lung = system: NCI-H322M lung
NCI-H460 NSCLC = system: NCI-H460 NSCLC
NCI-H522 lung = system: NCI-H522 lung
NCI/ADR-RES ovarian = system: NCI/ADR-RES ovarian
OVCAR-3 ovarian = system: OVCAR-3 ovarian
OVCAR-4 ovarian = system: OVCAR-4 ovarian
OVCAR-5 ovarian = system: OVCAR-5 ovarian
OVCAR-8 ovarian = system: OVCAR-8 ovarian
PC-3 prostate = system: PC-3 prostate
RPMI-8226 leukemia = system: RPMI-8226 leukemia
RXF 393 renal = system: RXF 393 renal
SF-268 CNS = system: SF-268 CNS
SF-295 CNS = system: SF-295 CNS
SF-539 CNS = system: SF-539 CNS
SK-MEL-2 melanoma = system: SK-MEL-2 melanoma
SK-MEL-28 melanoma = system: SK-MEL-28 melanoma
SK-MEL-5 melanoma = system: SK-MEL-5 melanoma
SK-OV-3 ovarian = system: SK-OV-3 ovarian
SN12C renal = system: SN12C renal
SNB-19 CNS = system: SNB-19 CNS
SNB-75 CNS = system: SNB-75 CNS
SW-620 colon = system: SW-620 colon
T-47D breast = system: T-47D breast
TK-10 renal = system: TK-10 renal
U251 glioblastoma = system: U251 glioblastoma
UACC-257 melanoma = system: UACC-257 melanoma
UACC-62 melanoma = system: UACC-62 melanoma
UO-31 renal = system: UO-31 renal

SMILES: Cc1c(N)nc([C@H](CC(N)=O)NC[C@H](N)C(N)=O)nc1C(=O)N[C@H](C(=O)N[C@H](C)[C@@H](O)[C@H](C)C(=O)N[C@H](C(=O)NCCc1nc(-c2nc(C(=O)NCCC[S+](C)C)cs2)cs1)[C@@H](C)O)C(OC1OC(CO)C(O)C(O)C1OC1OC(CO)C(O)C(OC(N)=O)C1O)c1cnc[nH]1 (some centres not stated)
- GI50 ([…]-0 renal): 0.945 µM
- GI50 (A498 renal): 1.51 µM
- TGI (A498 renal): 25.9 µM
- GI50 (A549 NSCLC): 1.65 µM
- TGI (A549 NSCLC): > 92.1 µM
- GI50 (ACHN renal): 0.164 µM
- TGI (ACHN renal): 0.929 µM
- GI50 (BT-549 breast): 1.06 µM
- TGI (BT-549 breast): 22.4 µM
- GI50 (CAKI-1 renal): 1.43 µM
- TGI (CAKI-1 renal): > 44.8 µM
- GI50 (CCRF-CEM leukemia): 2.08 µM
- TGI (CCRF-CEM leukemia): 6.72 µM
- GI50 (COLO 205 colon): 2.96 µM
- TGI (COLO 205 colon): 7.57 µM
- GI50 (DU-145 prostate): 1.71 µM
- TGI (DU-145 prostate): > 20.5 µM
- GI50 (EKVX NSCLC): > 48.2 µM
- TGI (EKVX NSCLC): > 100 µM
- GI50 (HCC-2998 colon): 6.35 µM
- TGI (HCC-2998 colon): 53.3 µM
- GI50 (HCT-116 colon): 0.071 µM
- TGI (HCT-116 colon): 19 µM
- GI50 (HCT-15 colon): 0.4 µM
- TGI (HCT-15 colon): 16.9 µM
- GI50 (HL-60(TB) leukemia): 2.66 µM
- TGI (HL-60(TB) leukemia): 7.29 µM
- GI50 (HOP-62 NSCLC): 0.169 µM
- TGI (HOP-62 NSCLC): 1.19 µM
- GI50 (HOP-92 NSCLC): 0.648 µM
- TGI (HOP-92 NSCLC): 23.6 µM
- GI50 (HS 578T breast): 0.266 µM
- TGI (HS 578T breast): 5.4 µM
- GI50 (HT29 colon): 16.9 µM
- TGI (HT29 colon): > 100 µM
- GI50 (IGROV1 ovarian): 3.19 µM
- TGI (IGROV1 ovarian): 43.6 µM
- GI50 (K-562 leukemia): 8.46 µM
- TGI (K-562 leukemia): > 79 µM
- GI50 (KM12 colon): 1.78 µM
- TGI (KM12 colon): 27.8 µM
- GI50 (LOX IMVI melanoma): 0.57 µM
- TGI (LOX IMVI melanoma): 12.3 µM
- GI50 (M14 melanoma): 1.42 µM
- TGI (M14 melanoma): 23.2 µM
- GI50 (MALME-3M melanoma): 18.2 µM
- TGI (MALME-3M melanoma): > 100 µM
- GI50 (MCF7 breast): 10 µM
- TGI (MCF7 breast): > 100 µM
- GI50 (MDA-MB-231 breast): 31.2 µM
- TGI (MDA-MB-231 breast): > 100 µM
- GI50 (MDA-MB-435 melanoma): 71.3 µM
- TGI (MDA-MB-435 melanoma): > 100 µM
- GI50 (MDA-MB-468 breast): 0.97 µM
- TGI (MDA-MB-468 breast): 4.28 µM
- GI50 (MOLT-4 leukemia): 0.439 µM
- TGI (MOLT-4 leukemia): 1.53 µM
- GI50 (NCI-H226 lung): 0.778 µM
- TGI (NCI-H226 lung): 9.52 µM
- GI50 (NCI-H23 lung): 1.21 µM
- TGI (NCI-H23 lung): 11.9 µM
- GI50 (NCI-H322M lung): 26.1 µM
- TGI (NCI-H322M lung): > 100 µM
- GI50 (NCI-H460 NSCLC): 0.331 µM
- TGI (NCI-H460 NSCLC): 14.6 µM
- GI50 (NCI-H522 lung): 2.21 µM
- TGI (NCI-H522 lung): 16.4 µM
- GI50 (NCI/ADR-RES ovarian): 0.273 µM
- TGI (NCI/ADR-RES ovarian): 5.9 µM
- GI50 (OVCAR-3 ovarian): 3.67 µM
- TGI (OVCAR-3 ovarian): 13.7 µM
- GI50 (OVCAR-4 ovarian): 13 µM
- TGI (OVCAR-4 ovarian): > 54.7 µM
- GI50 (OVCAR-5 ovarian): 6.43 µM
- TGI (OVCAR-5 ovarian): > 76 µM
- GI50 (OVCAR-8 ovarian): 0.41 µM
- TGI (OVCAR-8 ovarian): 21 µM
- GI50 (PC-3 prostate): 46.5 µM
- TGI (PC-3 prostate): > 100 µM
- GI50 (RPMI-8226 leukemia): 7.9 µM
- TGI (RPMI-8226 leukemia): > 100 µM
- GI50 (RXF 393 renal): 2.2 µM
- TGI (RXF 393 renal): 10.2 µM
- GI50 (SF-268 CNS): 0.6 µM
- TGI (SF-268 CNS): 8.37 µM
- GI50 (SF-295 CNS): 0.128 µM
- TGI (SF-295 CNS): 0.824 µM
- GI50 (SF-539 CNS): 0.234 µM
- TGI (SF-539 CNS): 4.56 µM
- GI50 (SK-MEL-2 melanoma): 11.1 µM
- TGI (SK-MEL-2 melanoma): 25.5 µM
- GI50 (SK-MEL-28 melanoma): 43.7 µM
- TGI (SK-MEL-28 melanoma): > 100 µM
- GI50 (SK-MEL-5 melanoma): 0.211 µM
- TGI (SK-MEL-5 melanoma): 1.17 µM
- GI50 (SK-OV-3 ovarian): 4.84 µM
- TGI (SK-OV-3 ovarian): > 64.7 µM
- GI50 (SN12C renal): 1.62 µM
- TGI (SN12C renal): 34.9 µM
- GI50 (SNB-19 CNS): 6.76 µM
- TGI (SNB-19 CNS): > 52 µM
- GI50 (SNB-75 CNS): 1.32 µM
- TGI (SNB-75 CNS): 6.43 µM
- GI50 (SW-620 colon): 4.95 µM
- TGI (SW-620 colon): > 100 µM
- GI50 (T-47D breast): 9.71 µM
- TGI (T-47D breast): > 82.5 µM
- GI50 (TK-10 renal): 8.01 µM
- TGI (TK-10 renal): > 42.1 µM
- GI50 (U251 glioblastoma): 0.522 µM
- TGI (U251 glioblastoma): 11.2 µM
- GI50 (UACC-257 melanoma): > 68 µM
- TGI (UACC-257 melanoma): > 100 µM
- GI50 (UACC-62 melanoma): 1.26 µM
- TGI (UACC-62 melanoma): 20 µM
- GI50 (UO-31 renal): 2.08 µM
- TGI (UO-31 renal): > 35.3 µM
